Test results from publication PMC8448677, “A novel assay based on pre-equilibrium titration curves for the determination of enzyme inhibitor binding kinetics” (European Biophysics Journal, 2021).
Starred links: 1 amine or outer side, 2 acyl side, 3 side chain; linkers in the order of their positions; H or OH if unused. Positions of bridges follow the written chain, without caps; N, C: chain ends. Non-standard residues stand in square brackets, D forms with d. Residues, ends and D or L forms follow the SMILES beside them. TBMB = c1c(C[*:1])cc(C[*:3])cc1C[*:2]; NMeR = CN[C@@H](CCCNC(=N)N)C(=O)O; hArg = N=C(N)NCCCC[C@H](N)C(=O)O; Aze = O=C(O)[C@@H]1CCN1; Sar = CNCC(=O)O

target: T1, Human PKal (plasma kallikrein) (Homo sapiens, UniProt P03952); assay: Pre-equilibrium titration curve inhibition assay of plasma kallikrein (fluorogenic substrate H-Pro-Phe-Arg-AMC, global fit with Eq. 7); assay type: biochemical; settings: Ki = koff/kon from pre-equilibrium curves, 25 °C, pH 7.5, PKal 1 nM (0.25 nM for 4b), mean ± SD of at least 3 independent measurements, read-out: Ki
T1 construct: purchased Molecular Innovations HPKA
Experimental: The TBMB-based bicyclic peptide inhibitors of PKal used in this study are listed in Table 1, some of which have been described previously (Teufel et al. [2018]). Experiments were performed at 25 °C in 20 mM Tris–HCl, 150 mM NaCl, 1 mM EDTA, 0.1% PEG-6000, 0.1% Triton X-100, pH 7.5. Human PKal (Molecular Innovations, cat. HPKA, typical nominal concentration 1 nM for all peptides except 0.25 nM for peptide 4b) was pre-incubated in 96-well plates with different concentrations of the tested peptide (typically a serial twofold dilution plus a control with no peptide) in a reaction volume of 90 µL. At different timepoints, the fluorogenic substrate H-Pro-Phe-Arg-AMC (Bachem, cat. I-1295.0050, 10 µL, 20 µM final) was added to the relevant wells, and the increase in fluorescence at 480 nm (with excitation at 360 nm) was recorded using a Spectramax M2e plate reader (Molecular Devices). Initial rates of substrate hydrolysis were obtained by linear fit of the raw fluorescence vs. time traces. In addition, fluorescence was recorded ensuring that no more than 10% of the substrate were hydrolyzed, and for periods of time (typically 30–60 s) short enough to obtain linear traces. The data were plotted as the initial rate of substrate hydrolysis vs. peptide concentration for the different times of incubation prior to substrate addition (as shown in Fig. 3) and analyzed using Eq. 7.
To compute unique values of kon and koff, data sets such as those of Fig. 3 must be analyzed “globally”, i.e., considering all pre-equilibrium inhibition curves as a unique data set, as allowed by modern nonlinear regression analysis software’s. In this study, we used GraphPad Prism ver. 5.02 (GraphPad Software Inc., La Jolla, CA) applying equal weighting (i.e., performing minimization based on absolute distances squared), and we invite the reader to consult the software’s user’s manual for a detailed description of how global fitting of such data sets can be performed (https://cdn.graphpad.com/faq/2/file/Prism_v5_Regression_Guide.pdf). One point to highlight is that the parameters kon, koff and E0 should be “shared”, to employ the terminology used in GraphPad Prism, i.e., that one unique value of these parameters is used to fit the data. […] As discussed previously for the analysis of data obtained under equilibrium, i.e., using Eq. 1 (see Teufel et al. [2018]), the term E0 in Eq. 7 can be treated as a shared but adjustable parameter or, as here, fixed to its known value. The terms v0, kon and koff, by contrast, always need to be treated as adjustable parameters. Finally, the knowledge of the kinetic parameters kon and koff enables calculation of the equilibrium inhibition constant Ki (Ki = koff/kon).
In the case of H-Pro-Phe-Arg-AMC, however, the Km for human PKal is large (Teufel et al. [2018]) and experiments were performed under conditions where [S] < < Km. Therefore, the values for kon, koff and Ki reported here can be considered as representing actual values.

T1 sequence (P03952 391-638 limits assumed): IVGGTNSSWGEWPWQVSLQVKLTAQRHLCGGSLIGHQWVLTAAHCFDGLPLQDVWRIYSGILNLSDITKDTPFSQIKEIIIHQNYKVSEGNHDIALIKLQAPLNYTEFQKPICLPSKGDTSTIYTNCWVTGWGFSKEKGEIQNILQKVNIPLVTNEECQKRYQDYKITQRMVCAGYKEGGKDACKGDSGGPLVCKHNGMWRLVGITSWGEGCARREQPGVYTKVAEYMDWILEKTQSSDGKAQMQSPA
T1 sequence (P03952 20-390 partner limits assumed): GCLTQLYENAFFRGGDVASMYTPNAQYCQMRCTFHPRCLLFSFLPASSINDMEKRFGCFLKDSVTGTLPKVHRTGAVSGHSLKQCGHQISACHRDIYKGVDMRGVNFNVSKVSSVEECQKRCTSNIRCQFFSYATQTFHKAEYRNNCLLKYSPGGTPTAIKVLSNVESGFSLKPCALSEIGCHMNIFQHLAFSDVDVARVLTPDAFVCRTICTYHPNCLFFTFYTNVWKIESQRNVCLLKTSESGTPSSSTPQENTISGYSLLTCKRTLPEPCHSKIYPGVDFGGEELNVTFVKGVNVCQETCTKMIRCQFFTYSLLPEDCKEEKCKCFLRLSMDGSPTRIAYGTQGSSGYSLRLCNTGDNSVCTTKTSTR

In order of rising Ki:
1. CC(=O)N[C@H]1CSCc2cc3cc(c2)CSC[C@H](NC(=O)[C@H](CCCCNC(=N)N)NC(=O)[C@H](Cc2ccc(O)cc2)NC(=O)[C@@H]2CCN2C(=O)[C@H](Cc2ccccc2)NC(=O)[C@H](CO)NC1=O)C(=O)N[C@@H](CC(C)C)C(=O)N[C@@H](Cc1c[nH]cn1)C(=O)N[C@@H](CCC(N)=O)C(=O)N[C@@H](CC(=O)O)C(=O)N[C@@H](CC(C)C)C(=O)N[C@H](C(N)=O)CSC3 [Peptide 5c] (Ac-CSF[Aze]Y[hArg]CLHQDLC-NH2; linker 1-7-13 via TBMB)  0.061 ± 0.027 nM
2. CC(=O)N[C@H]1CSCc2cc3cc(c2)CSC[C@H](NC(=O)[C@H](CCCNC(=N)N)NC(=O)[C@H](C)NC(=O)[C@@H]2CCCN2C(=O)[C@H](Cc2c[nH]c4ccccc24)NC(=O)[C@H](CO)NC1=O)C(=O)N[C@@H](CC(C)C)C(=O)N[C@@H](Cc1c[nH]cn1)C(=O)N[C@@H](CCC(N)=O)C(=O)N[C@@H](CC(=O)O)C(=O)N[C@@H](CC(C)C)C(=O)N[C@H](C(N)=O)CSC3 [Peptide 2b] (Ac-CSWPARCLHQDLC-NH2; linker 1-7-13 via TBMB)  0.1 ± 0.02 nM
3. CC(=O)N[C@H]1CSCc2cc3cc(c2)CSC[C@H](NC(=O)[C@H](CCCCNC(=N)N)NC(=O)[C@H](Cc2ccc(O)cc2)NC(=O)[C@@H]2CCN2C(=O)[C@H](Cc2ccccc2)NC(=O)[C@H](CO)NC1=O)C(=O)N[C@@H](C)CN[C@@H](Cc1c[nH]cn1)C(=O)N[C@@H](CCC(N)=O)C(=O)N[C@@H](CC(=O)O)C(=O)N[C@@H](CC(C)C)C(=O)N[C@H](C(N)=O)CSC3 [Peptide 2d]  0.22 ± 0.04 nM
4. CC(=O)N[C@H]1CSCc2cc3cc(c2)CSC[C@H](NC(=O)[C@H](CCCNC(=N)N)NC(=O)[C@H](Cc2ccc(O)cc2)NC(=O)[C@@H]2CCCN2C(=O)[C@H](Cc2ccccc2)NC(=O)[C@H](CO)NC1=O)C(=O)N[C@@H](CC(C)C)C(=O)N[C@@H](Cc1c[nH]cn1)C(=O)N[C@@H](CCC(N)=O)C(=O)N[C@@H](CC(=O)O)C(=O)N[C@@H](CC(C)C)C(=O)N[C@H](C(N)=O)CSC3 [Peptide 2c] (Ac-CSFPYRCLHQDLC-NH2; linker 1-7-13 via TBMB)  0.34 ± 0.04 nM
5. CC(=O)N[C@H]1CSCc2cc3cc(c2)CSC[C@H](NC(=O)[C@H](CCCNC(=N)N)NC(=O)[C@H](Cc2ccc(O)cc2)NC(=O)[C@@H]2CCCN2C(=O)[C@H](Cc2ccccc2)NC(=O)[C@H](CO)NC1=O)C(=O)N[C@@H](CC(C)C)C(=O)N[C@@H](Cc1c[nH]cn1)C(=O)N[C@@H](CCC(N)=O)C(=O)N[C@@H](CC(=O)O)C(=O)N[C@@H](CC(C)C)C(=O)N[C@H](C(N)=O)CSC3 [Peptide 5a] (Ac-CSFPYRCLHQDLC-NH2; linker 1-7-13 via TBMB)  0.36 ± 0.06 nM
6. CC(=O)N[C@H]1CSCc2cc3cc(c2)CSC[C@H](NC(=O)[C@H](CCCCNC(=N)N)NC(=O)[C@H](Cc2ccc(O)cc2)NC(=O)[C@@H]2CCCN2C(=O)[C@H](Cc2ccccc2)NC(=O)[C@H](CO)NC1=O)C(=O)N[C@@H](CC(C)C)C(=O)N[C@@H](Cc1c[nH]cn1)C(=O)N[C@@H](CCC(N)=O)C(=O)N[C@@H](CC(=O)O)C(=O)N[C@@H](CC(C)C)C(=O)N[C@H](C(N)=O)CSC3 [Peptide 5b] (Ac-CSFPY[hArg]CLHQDLC-NH2; linker 1-7-13 via TBMB)  0.53 ± 0.07 nM
7. CC(=O)N[C@H]1CSCc2cc3cc(c2)CSC[C@H](NC(=O)[C@H](CCCNC(=N)N)N(C)C(=O)[C@H](Cc2ccc(O)cc2)NC(=O)[C@@H]2CCN2C(=O)[C@H](Cc2ccccc2)NC(=O)[C@H](CO)NC1=O)C(=O)N[C@@H](CC(C)C)C(=O)N[C@@H](Cc1c[nH]cn1)C(=O)N[C@@H](CCC(N)=O)C(=O)N[C@@H](CC(=O)O)C(=O)N[C@@H](CC(C)C)C(=O)N[C@H](C(N)=O)CSC3 [Peptide 5d] (Ac-CSF[Aze]Y[NMeR]CLHQDLC-NH2; linker 1-7-13 via TBMB)  0.55 ± 0.06 nM
8. CC(=O)N[C@H]1CSCc2cc3cc(c2)CSC[C@H](NC(=O)[C@H](Cc2c[nH]c4ccccc24)NC(=O)[C@@H]2CCCN2C(=O)[C@H](CC(N)=O)NC(=O)[C@H](Cc2c[nH]c4ccccc24)NC(=O)[C@H]([C@@H](C)O)NC(=O)[C@H](CC(N)=O)NC1=O)C(=O)N1CCC[C@H]1C(=O)N[C@@H](Cc1c[nH]c2ccccc12)C(=O)N[C@@H](CC(=O)O)C(=O)N[C@@H](C)C(=O)N1CCC[C@H]1C(=O)N[C@@H](CC(C)C)C(=O)N[C@H](C(=O)N[C@@H](C)C(=O)N(C)CC(=O)N(C)CC(=O)N(C)CC(=O)N[C@H](CCCNC(=N)N)C(=O)N[C@H](CCCNC(=N)N)C(N)=O)CSC3 [Peptide 1b] (Ac-CNTWNPWCPWDAPLCA[Sar][Sar][Sar][dR][dR]-NH2; linker 1-8-15 via TBMB)  1.8 ± 0.2 nM

same assay, conditions: Ki, Ki = koff/kon from pre-equilibrium curves, 25 °C, pH 7.5, PKal 1 nM (0.25 nM for 4b), mean ± SD of at least 3 independent measurements

Work on `CC[C@H](C)[C@@H]1NC(=O)[C@H](CC(=O)O)NC(=O)[C@@H]2CCCN2C(=O)[C@H](Cc2ccc(O)cc2)NC(=O)[C@H](Cc2ccc(O)cc2)NC(=O)[C@H](C(C)C)NC(=O)[C@@H]2CSCc3cc(cc(c3)CSC[C@@H](C(=O)N[C@@H](C)C(=O)N(C)CC(=O)N(C)CC(=O)N(C)CC(=O)N[C@H](CCCNC(=N)N)C(=O)N[C@H](CCCNC(=N)N)C(N)=O)NC1=O)CSC[C@H](NC(C)=O)C(=O)N[C@@H](CO)C(=O)N[C@@H](Cc1ccccc1)C(=O)N1CC[C@H]1C(=O)N[C@@H](Cc1ccc(O)cc1)C(=O)N[C@@H](CCCCNC(=N)N)C(=O)N2` [Peptide 4b] (Ac-CSF[Aze]Y[hArg]CVYYPDICA[Sar][Sar][Sar][dR][dR]-NH2; linker 1-7-14 via TBMB) yielded a Ki of 0.14 ± 0.02 nM.
